Our source for the T/C values is PubChem BioAssay AID316 (DTP/NCI, 2004).

Values joined by “and” are separate entries in the source; they are usually repeats but may differ in a detail not shown here. Equal entries are not always repeated. Toxic doses and inconclusive results are not listed.

This assay concerns P1534 leukemia ip, CD2F1 mice, survival T/C. Nature of the assay: NCI In Vivo Anticancer Drug Screen. Data for tumor model P1534 Leukemia (intraperitoneal) in CD2F1 (CDF1) mice. Particulars: higher = longer survival. On the procedure:
The antitumor activity of compounds was measured in mice bearing transplantable tumors. Survival or tumor size were measured and the results are expressed as the measurement made in the treated group (T) divided by the measurement made in the vehicle treated control group (C). The tumor model used in this assay is P1534 Leukemia (intraperitoneal) in CD2F1 (CDF1) mice

[1] abbreviates: endpoint: mean survival time, dose: 100.0 mg/kg/injection, schedule: Q01DX010 (ip), vehicle: water.
Where [2] appears, read: endpoint: mean survival time, dose: 20.0 mg/kg/injection, schedule: Q01DX010 (ip), vehicle: saline.
Where [3] appears, read: endpoint: mean survival time, dose: 40.0 mg/kg/injection, schedule: Q01DX010 (ip), vehicle: saline.
[4] abbreviates: endpoint: mean survival time, dose: 6.25 mg/kg/injection, schedule: Q01DX010 (ip), vehicle: other.
Setting [5] is: endpoint: mean survival time, dose: 25.0 mg/kg/injection, schedule: Q01DX010 (ip), vehicle: saline.
[6] abbreviates: endpoint: mean survival time, dose: 50.0 mg/kg/injection, schedule: Q01DX010 (ip), vehicle: saline.
[7] abbreviates: endpoint: mean survival time, dose: 100.0 mg/kg/injection, schedule: Q01DX010 (ip), vehicle: saline.
Setting [8] is: endpoint: mean survival time, dose: 200.0 mg/kg/injection, schedule: Q01DX010 (ip), vehicle: saline.
[9] abbreviates: endpoint: mean survival time, dose: 12.5 mg/kg/injection, schedule: Q01DX010 (ip), vehicle: saline.
Setting [10] is: endpoint: mean survival time, dose: 1.56 mg/kg/injection, schedule: Q01DX010 (ip), vehicle: saline.
Setting [11] is: endpoint: mean survival time, dose: 3.13 mg/kg/injection, schedule: Q01DX010 (ip), vehicle: saline.

Turning to `CO[C@@H]1[C@@H](OC2OC(C)C(OC3CC(C)(O)C(OC(=O)CC(C)C)C(C)O3)C(N(C)C)C2O)[C@@H](CC=O)C[C@@H](C)C(=O)/C=C/C2O[C@H]2C[C@@H](C)OC(=O)C[C@H]1OC(C)=O` (some centres undefined), the T/C was 96 % of control (endpoint: mean survival time, dose: 50.0 mg/kg/injection, schedule: Q#A X020 (ip), vehicle: water); 92 % of control under setting [1]; 107 % of control and 109 % of control (endpoint: mean survival time, dose: 100.0 mg/kg/injection, schedule: Q#A X020 (ip), vehicle: water); 113 % of control (endpoint: mean survival time, dose: 125.0 mg/kg/injection, schedule: Q#A X020 (ip), vehicle: water); 115 % of control (endpoint: mean survival time, dose: 150.0 mg/kg/injection, schedule: Q#A X020 (ip), vehicle: water); 116 % of control (endpoint: mean survival time, dose: 175.0 mg/kg/injection, schedule: Q#A X020 (ip), vehicle: water). Also, the T/C by setting is: (endpoint: mean survival time, dose: 200.0 mg/kg/injection, schedule: Q01DX010 (ip), vehicle: water) 110 % of control; (endpoint: mean survival time, dose: 250.0 mg/kg/injection, schedule: Q01DX010 (ip), vehicle: water) 121 % of control; (endpoint: mean survival time, dose: 300.0 mg/kg/injection, schedule: Q01DX010 (ip), vehicle: water) 104 % of control; (endpoint: mean survival time, dose: 1000.0 mg/kg/injection, schedule: Q01DX010 (oral), vehicle: water) 119 % of control.
Turning to `CC1CCOS(=O)O1` (centres undefined), the T/C was 103 % of control (endpoint: mean survival time, dose: 10.0 mg/kg/injection, schedule: Q01DX010 (ip), vehicle: saline); 100 % of control under setting [2]; 100 % of control under setting [3].
Turning to `O=C(O)CCCc1ccc(N(CCCl)CCCl)cc1`, the T/C was 114 % of control under setting [4] and 103 % of control (endpoint: mean survival time, dose: 25.0 mg/kg/injection, schedule: Q01DX010 (ip), vehicle: other).
As to `CC[C@]12C=CCN3CC[C@@]4(c5ccc(OC)cc5N(C)[C@H]4[C@@](O)(C(=O)OC)[C@@H]1OC(C)=O)[C@@H]32`, the T/C (endpoint: mean survival time, dose: 7.5 mg/kg/injection, schedule: Q01DX010 (ip), vehicle: saline) is 93 % of control; the T/C (endpoint: mean survival time, dose: 15.0 mg/kg/injection, schedule: Q01DX010 (ip), vehicle: saline) was 93 % of control; the T/C (endpoint: mean survival time, dose: 30.0 mg/kg/injection, schedule: Q01DX010 (ip), vehicle: saline) was 96 % of control; the T/C (endpoint: mean survival time, dose: 60.0 mg/kg/injection, schedule: Q01DX010 (ip), vehicle: saline) was 86 % of control.
`O=[n+]1c2c(n([O-])c3ccccc31)-c1cccc3cccc-2c13`: the T/C under setting [5] was 92 % of control and 96 % of control; the T/C under setting [6] was 103 % of control and 92 % of control; the T/C under setting [7] is 92 % of control and 96 % of control; the T/C under setting [8] was 92 % of control.
Consider `NCCCC(=O)NCCCCCCCCCCNC(=O)CCCN`, for which the T/C is 96 % of control under setting [9], 93 % of control under setting [5], 96 % of control under setting [6] and 103 % of control under setting [7].
On to `N=[N+]=CC(=O)OCC(N)C(=O)O` (centres undefined), for which the T/C is, setting by setting: under setting [4], 155 % of control; (endpoint: mean survival time, dose: 15.5 mg/kg/injection, schedule: Q01DX010 (ip), vehicle: saline) 119 % of control.
`Clc1[nH]nc2ccccc12`: the T/C by setting is: (endpoint: mean survival time, dose: 7.8 mg/kg/injection, schedule: Q01DX010 (ip), vehicle: saline) 100 % of control; (endpoint: mean survival time, dose: 15.6 mg/kg/injection, schedule: Q01DX010 (ip), vehicle: saline) 96 % of control; (endpoint: mean survival time, dose: 31.3 mg/kg/injection, schedule: Q01DX010 (ip), vehicle: saline) 96 % of control; (endpoint: mean survival time, dose: 62.5 mg/kg/injection, schedule: Q01DX010 (ip), vehicle: saline) 107 % of control and 100 % of control; (endpoint: mean survival time, dose: 125.0 mg/kg/injection, schedule: Q01DX010 (ip), vehicle: saline) 92 % of control.
Turning to `CCCCCCCCCCCCCCCCC(C(=O)O)C(O)(CC(=O)O)C(=O)O` (centres undefined), the T/C under setting [5] was 88 % of control.
For `Cc1[nH]ncc1Br`, the T/C was 95 % of control under setting [1] and 98 % of control (endpoint: mean survival time, dose: 150.0 mg/kg/injection, schedule: Q01DX010 (ip), vehicle: water).
As for `OCC1OC(n2cnc3c(=S)nc[nH]c32)C(O)C1O` (centres undefined), the T/C by setting is: under setting [2], 111 % of control; under setting [3], 111 % of control and 122 % of control.
As to `CN(Cc1cnc2nc(N)nc(N)c2n1)c1ccc(C(=O)N[C@@H](CCC(=O)O)C(=O)O)cc1`, the T/C runs as follows: (endpoint: median survival time, dose: 0.5 mg/kg/injection, schedule: Q01DX009 (ip), vehicle: sodium bicarbonate) 158 % of control; (endpoint: median survival time, dose: 1.0 mg/kg/injection, schedule: Q01DX009 (ip), vehicle: sodium bicarbonate) 198 % of control.
For the molecule `COc1cc(C[C@H]2c3cc(OC)c(OC)cc3CCN2C)c(Oc2cc3c(cc2OC)-c2c(OC)c(OC)cc4c2[C@H](C3)N(C)CC4)cc1OC`, the T/C runs as follows: under setting [5], 92 % of control; under setting [6], 92 % of control.
Turning to `CS(=O)(=O)OCC(O)C(O)COS(C)(=O)=O` (centres undefined), the T/C under setting [2] was 107 % of control; the T/C under setting [3] is 107 % of control; the T/C (endpoint: mean survival time, dose: 80.0 mg/kg/injection, schedule: Q01DX010 (ip), vehicle: saline) was 107 % of control; the T/C under setting [7] is 103 % of control; the T/C (endpoint: mean survival time, dose: 160.0 mg/kg/injection, schedule: Q01DX010 (ip), vehicle: saline) was 117 % of control; the T/C under setting [8] is 103 % of control. Also, the T/C is 107 % of control (endpoint: mean survival time, dose: 400.0 mg/kg/injection, schedule: Q01DX010 (ip), vehicle: saline) and 89 % of control (endpoint: mean survival time, dose: 800.0 mg/kg/injection, schedule: Q01DX010 (ip), vehicle: saline).
`C[C@]12CCC(=O)C=C1CC[C@@H]1[C@@H]2[C@@H](O)C[C@@]2(C)[C@H]1CC[C@]2(O)C(=O)CO`: the T/C (endpoint: mean survival time, dose: 10.0 mg/kg/injection, schedule: Q01DX005 (sc), vehicle: steriod suspending solution) is 110 % of control (2×) and 118 % of control; the T/C (endpoint: mean survival time, dose: 50.0 mg/kg/injection, schedule: Q01DX005 (sc), vehicle: steriod suspending solution) was 104 % of control (2×) and 110 % of control; the T/C (endpoint: mean survival time, dose: 100.0 mg/kg/injection, schedule: Q01DX005 (sc), vehicle: steriod suspending solution) is 90 % of control and 95 % of control; the T/C (endpoint: mean survival time, dose: 200.0 mg/kg/injection, schedule: Q01DX005 (sc), vehicle: steriod suspending solution) was 87 % of control and 89 % of control; the T/C (endpoint: mean survival time, dose: 250.0 mg/kg/injection, schedule: Q01DX005 (sc), vehicle: steriod suspending solution) is 93 % of control.
Consider `C1CCNC1`, for which the T/C runs as follows: under setting [10], 113 % of control; under setting [11], 103 % of control; (endpoint: mean survival time, dose: 6.25 mg/kg/injection, schedule: Q01DX010 (ip), vehicle: saline) 100 % of control; under setting [9], 103 % of control and 96 % of control; under setting [5], 86 % of control.
Turning to `O=CC1CO1` (centres undefined), the T/C is, setting by setting: (endpoint: mean survival time, dose: 13.0 mg/kg/injection, schedule: Q01DX010 (ip), vehicle: saline) 107 % of control; (endpoint: mean survival time, dose: 19.0 mg/kg/injection, schedule: Q01DX010 (ip), vehicle: saline) 107 % of control; (endpoint: mean survival time, dose: 29.0 mg/kg/injection, schedule: Q01DX010 (ip), vehicle: saline) 111 % of control; (endpoint: mean survival time, dose: 29.0 mg/kg/injection, schedule: Q01DX010 (ip), vehicle: steriod suspending solution) 100 % of control; (endpoint: mean survival time, dose: 44.0 mg/kg/injection, schedule: Q01DX010 (ip), vehicle: saline) 100 % of control; (endpoint: mean survival time, dose: 44.0 mg/kg/injection, schedule: Q01DX010 (ip), vehicle: steriod suspending solution) 86 % of control.
Regarding `NNC(=O)c1cnccn1`, the T/C (endpoint: mean survival time, dose: 40.0 mg/kg/injection, schedule: Q01DX010 (ip), vehicle: water) was 121 % of control; the T/C (endpoint: mean survival time, dose: 80.0 mg/kg/injection, schedule: Q01DX010 (ip), vehicle: water) is 110 % of control and 97 % of control.
Regarding `COc1cc2c3c(c4ccc(OC)c(OC)c4c2cc1OC)CN1CCC[C@@H]1C3`, the T/C by setting is: (endpoint: mean survival time, dose: 2.5 mg/kg/injection, schedule: Q01DX010 (ip), vehicle: water) 105 % of control; (endpoint: mean survival time, dose: 5.0 mg/kg/injection, schedule: Q01DX010 (ip), vehicle: water) 102 % of control; (endpoint: mean survival time, dose: 7.5 mg/kg/injection, schedule: Q01DX010 (ip), vehicle: water) 124 % of control; (endpoint: mean survival time, dose: 10.0 mg/kg/injection, schedule: Q01DX010 (ip), vehicle: water) 113 % of control.
Consider `C[C@@H](N)[C@@H](O)c1ccccc1`, for which the T/C was 103 % of control (endpoint: mean survival time, dose: 0.39 mg/kg/injection, schedule: Q01DX010 (ip), vehicle: saline); 100 % of control (endpoint: mean survival time, dose: 0.78 mg/kg/injection, schedule: Q01DX010 (ip), vehicle: saline); 100 % of control under setting [10]; 103 % of control under setting [11].
On to `N=C(N)SCc1c2ccccc2c(CSC(=N)N)c2ccccc12`, for which the T/C is, setting by setting: (endpoint: mean survival time, dose: 0.31 mg/kg/injection, schedule: Q01DX010 (ip), vehicle: saline) 117 % of control; (endpoint: mean survival time, dose: 0.63 mg/kg/injection, schedule: Q01DX010 (ip), vehicle: saline) 121 % of control.
